# Data taken from patent US20260256921A1, “BIFUNCTIONAL MOLECULES TO TARGET DEGRADATION OF TUMOR NECROSIS FACTOR” (Biohaven Therapeutics Ltd., priority 2023, published 2026).
# Like-named read-outs stand apart in the source and are kept apart here.
# Legend:
# human TNF-α [1] = target: T1, human TNF-α (Homo sapiens, UniProt P01375); test: TNF-α functional assay (hHEK-TNF-α SEAP reporter cells); format: cell-based; set-up: purchased ACROBiosystems TNA-H4211
# Source text: Human HEK TNF-αcells (hHEK-TNF-α cells; InvivoGen Catalog #hkb-tnfdmyd; San Diego, CA, USA) are human embryonic kidney HEK293 cells that are stably transfected with the reporter gene, secreted alkaline phosphatase (SEAP). The hHEK-TNF-α cells allow for the detection of bioactive human and murine TNF-α via the activation of the NF-kB-inducible promoter and subsequent production of SEAP. Bioactivity of commercial human TNF-α protein (ActiveMax® Human TNF-α Protein, Tag Free, Low Endotoxin; available by ACROBiosystems Catalog #TNA-H4211; Newark, DE, USA) was determined in this reporter system.
# Test molecules were dissolved in 100% DMSO and serially diluted by either 3-fold serial dilution or 4-fold serial dilution. […] TNF-α protein was added at the previously determined ECso. Plates containing cells, test molecules, and cytokine were incubated overnight for 18-24 hours at 37° C., 5% CO2.
# The level of SEAP in the supernatant of each well was quantified using the Quanti Blue™ Solution (InvivoGen Catalog #rep-qba2; San Diego, CA, USA), a reagent with a colorimetric change in the presence of SEAP. To perform the Quanti-Blue assay: 20 L of the sample supernatant after the overnight 18-24 hour incubation was added to 180 L of Quanti Blue™ Reagent and incubated for 45 minutes at 37° C. […] Inhibition of TNF-α signaling was calculated utilizing GraphPad Prism (San Diego, CA, USA).
# Target sequence in this assay (P01375 77-233 limits assumed): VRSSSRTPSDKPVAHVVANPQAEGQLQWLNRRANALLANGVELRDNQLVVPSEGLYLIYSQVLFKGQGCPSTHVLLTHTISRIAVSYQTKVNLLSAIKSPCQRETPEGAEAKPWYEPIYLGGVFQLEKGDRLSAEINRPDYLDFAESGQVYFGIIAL
# human TNF-α [2] = target: T1, human TNF-α; test: TNF-α thermal melt assay; format: binding; set-up: Amino acids 77-233 of Human TNF-α protein with an N-terminal GST tag; GST (N, cleaved yes); made in house; host or cells: Escherichia coli (BL21 NiCo)
# Description: Protein was purified using glutathione agarose purification columns (Pierce™, Waltham, MA, USA). Following purification, the GST tag was removed using HRV3c protease (Pierce™, Waltham, MA, USA) and the GST tag and the TNF-α were separated via ion exchange chromatography using a 20 mM HEPES pH 8.0 buffer system ramping from 0 to 1 M NaCl over 12 column volumes with 5 ml of Q Sepharose (HiScreen Q HP, Cytiva™, Marlborough, MA, USA). The final protein includes the amino acids GPLGSG at the N-terminus of the protein.
# Protein was heated from 20° C. to 95° C. at one degree per minute in a Roche Opus384 qPCR machine.
# Target sequence in this assay (P01375 77-233): as the sequence (P01375 77-233 limits assumed) above
# [3] = hHEK-TNF-α cells, SEAP readout, TNF-α added at EC80 (1.034 pM), 18-24 hours, read-out: TNF-α Function IC50
# [4] = thermal melt, SYPRO Orange, Kd calculated as in Matulis et al., read-out: TM Kd
IC50 (human TNF-α [1]; [3]) [nM],Kd (human TNF-α [2]; [4]) [nM],IC50 (human TNF-α [1]) [nM],Kd (human TNF-α [2]) [nM],SMILES
1000,120,–,–,CC(C)(C)OC(=O)CCOCCOCCOCCOCCOCCOCCOCCOCCC(=O)N1CCN(Cc2ccc(-c3c[nH]c4ccncc34)c(OCCc3ccc(-c4cccc5ccncc45)cc3)c2)CC1 [Intermediate 3]
230,69,–,–,O=C(O)CCOCCOCCOCCOCCOCCOCCOCCOCCC(=O)N1CCN(Cc2ccc(-c3c[nH]c4ccncc34)c(OCCc3ccc(-c4cccc5ccncc45)cc3)c2)CC1 [Intermediate 4]
810,–,–,–,CC(C)(C)OC(=O)CCOCCOCCOCCOCCOCCOCCC(=O)N1CCN(Cc2ccc(-c3c[nH]c4ccncc34)c(OCCc3ccc(-c4cccc5ccncc45)cc3)c2)CC1 [Intermediate 18]
370,–,–,–,O=C(O)CCOCCOCCOCCOCCOCCOCCC(=O)N1CCN(Cc2ccc(-c3c[nH]c4ccncc34)c(OCCc3ccc(-c4cccc5ccncc45)cc3)c2)CC1 [Intermediate 19]
337,31,–,–,CC(C)(C)OC(=O)CCOCCOCCC(=O)N1CCN(Cc2ccc(-c3c[nH]c4ccncc34)c(OCCc3ccc(-c4cccc5ccncc45)cc3)c2)CC1 [Intermediate 23]
247,220,–,–,O=C(O)CCOCCOCCC(=O)N1CCN(Cc2ccc(-c3c[nH]c4ccncc34)c(OCCc3ccc(-c4cccc5ccncc45)cc3)c2)CC1 [Intermediate 24]
–,–,240,< 1,CN1CCN(Cc2ccc(-c3c[nH]c4ccncc34)c(OCCc3ccc(-c4cccc5ccncc45)cc3)c2)CC1 [Intermediate 25]
